According to patent US7745474B2, “Imidazole derivatives for the treatment of gastrointestinal disorders” (AstraZeneca AB, priority 2005, dated 2010):

Biological target: T1, GABAB receptor (GABABR1a/GABABR2 heterodimer) (Homo sapiens, UniProt O75899+Q9UBS5)
T1 construct: expressed in transfected cells
Assay: [35S]-GTPγS binding assay, potency of positive allosteric modulator on GABA EC50
Assay type: biochemical
Settings: potency of the modulator: concentration required to reduce GABA's EC50 by 50%
Source text: GABABR1a and GABABR2 were cloned from human brain cDNA and subcloned into pCI-Neo (Promega) and pALTER-1 (Promega), respectively. A GABABR1a-Gαqi5 fusion protein expression vector was constructed using the pCI-Neo-GABABR1a cDNA plasmid and pLEC1-Gαqi5 (Molecular Devices, CA). In order to make the Gαqi5 pertussis toxin insensitive, Cys356 was mutated to Gly using standard PCR methodology with the primers 5′-[…]-3 (forward) and 5′-GCGGCCG […]-3′ (reverse). The Gαqi5mut cDNA was ligated into the BamnHI and NotI sites of pcDNA3.0 (Invitrogen). The GABABR1a coding sequence was amplified by PCR from pCI-Neo-GABABR1a using the primers, 5′-[…]-3′ (forward) and 5′-[…]-3′ (reverse) and subdloned into the BamHI site of pcDNA3.0-Gαqi5mut.
For generation of stable cell lines, CHO-K1 cells were grown in Nut mix F-12 (Ham) media supplemented with 10% FBS, 100 U/ml Penicillin and 100 μg/nl Streptomycin at 37° C. in a humidified CO2-incubator. […]
[^35S]-GTPγS binding assays were performed at 30° C. for 45 min in membrane buffer (100 mM NaCl, […], 1 mM EDTA, 50 mM HEPES, pH 7.4) containing 0.025 μg/μl of membrane protein (prepared from the cell lines described above) with 0.01% bovine serum albumin (fatty acid free), 10 μM GDP, 100 μM DTT and 0.53 nM [^35S]-GTPγS (Amersham-Pharmacia Biotech) in a final volume of 200 μl. Nonspecific binding was determined in the presence of 20 μM GTPγS. […]

T1 sequence (Q9UBS5 15-961 limits assumed): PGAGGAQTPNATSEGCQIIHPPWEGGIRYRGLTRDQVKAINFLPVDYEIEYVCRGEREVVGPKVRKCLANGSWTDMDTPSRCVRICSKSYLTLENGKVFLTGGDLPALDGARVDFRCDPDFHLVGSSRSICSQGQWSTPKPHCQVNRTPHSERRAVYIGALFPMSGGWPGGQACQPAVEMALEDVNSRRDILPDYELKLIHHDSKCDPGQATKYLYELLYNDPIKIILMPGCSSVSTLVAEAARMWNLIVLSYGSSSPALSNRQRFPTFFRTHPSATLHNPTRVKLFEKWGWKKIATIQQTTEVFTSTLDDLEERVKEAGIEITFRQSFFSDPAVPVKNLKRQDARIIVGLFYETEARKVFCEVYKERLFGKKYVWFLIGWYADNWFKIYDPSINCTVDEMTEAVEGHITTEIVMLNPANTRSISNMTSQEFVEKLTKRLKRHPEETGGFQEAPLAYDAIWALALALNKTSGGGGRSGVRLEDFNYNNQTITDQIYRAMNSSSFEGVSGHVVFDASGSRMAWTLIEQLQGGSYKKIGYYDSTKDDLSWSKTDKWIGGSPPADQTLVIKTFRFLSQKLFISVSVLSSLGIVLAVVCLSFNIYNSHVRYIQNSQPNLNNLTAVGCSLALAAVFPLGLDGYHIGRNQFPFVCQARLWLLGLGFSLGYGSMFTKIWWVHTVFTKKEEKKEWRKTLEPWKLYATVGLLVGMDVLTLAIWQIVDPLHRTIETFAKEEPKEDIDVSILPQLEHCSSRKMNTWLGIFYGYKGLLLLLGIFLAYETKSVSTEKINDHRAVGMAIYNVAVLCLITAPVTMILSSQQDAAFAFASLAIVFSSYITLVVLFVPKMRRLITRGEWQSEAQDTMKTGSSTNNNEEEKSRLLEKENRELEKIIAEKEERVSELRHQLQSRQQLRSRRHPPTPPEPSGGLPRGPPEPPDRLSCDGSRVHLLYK
T1 sequence (O75899 42-941): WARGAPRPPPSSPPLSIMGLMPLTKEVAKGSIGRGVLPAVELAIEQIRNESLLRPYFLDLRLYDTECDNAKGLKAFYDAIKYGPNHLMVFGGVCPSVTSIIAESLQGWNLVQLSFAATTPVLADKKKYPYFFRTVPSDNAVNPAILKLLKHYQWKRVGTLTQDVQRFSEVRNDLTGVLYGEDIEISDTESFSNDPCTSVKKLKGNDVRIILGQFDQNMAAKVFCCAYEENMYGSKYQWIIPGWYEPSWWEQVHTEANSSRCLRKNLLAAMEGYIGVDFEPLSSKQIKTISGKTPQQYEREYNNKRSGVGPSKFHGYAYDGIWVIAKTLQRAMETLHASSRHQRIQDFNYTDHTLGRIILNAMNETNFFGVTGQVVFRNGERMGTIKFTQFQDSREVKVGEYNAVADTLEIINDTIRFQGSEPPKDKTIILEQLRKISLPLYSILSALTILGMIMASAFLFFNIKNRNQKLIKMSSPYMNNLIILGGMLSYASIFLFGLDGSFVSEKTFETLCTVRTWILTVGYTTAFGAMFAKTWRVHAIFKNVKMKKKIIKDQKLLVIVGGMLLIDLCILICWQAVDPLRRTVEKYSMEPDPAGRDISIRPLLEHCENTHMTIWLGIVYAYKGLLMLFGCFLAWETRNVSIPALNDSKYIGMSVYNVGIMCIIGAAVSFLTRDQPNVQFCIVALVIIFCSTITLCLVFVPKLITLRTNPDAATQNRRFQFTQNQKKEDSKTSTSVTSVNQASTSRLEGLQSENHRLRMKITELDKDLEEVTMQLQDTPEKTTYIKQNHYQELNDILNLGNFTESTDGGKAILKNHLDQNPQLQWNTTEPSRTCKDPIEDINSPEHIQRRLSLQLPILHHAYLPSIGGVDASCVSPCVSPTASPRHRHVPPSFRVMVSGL

EC50 [nM]	Compound
2380	CN(C)c1nc(/N=C(/c2ccc(Cl)cc2)N2CCCC2)c(C(=O)OC(C)(C)C)n1-c1ccccc1 [Example 2, tert-butyl 4-{[(1Z)-(4-chlorophenyl)(pyrrolidin-1-yl)methylene]amino}-2-(dimethylamino)-1-phenyl-1H-imidazole-5-carboxylate]
2270	CN(C)c1nc(NC(=S)C2COc3ccccc3O2)c(C(=O)OC(C)(C)C)n1-c1ccccc1 (centres unmarked) [Example 6, tert-butyl 4-[(2,3-dihydro-1,4-benzodioxin-2-ylcarbonothioyl)amino]-2-(dimethylamino)-1-phenyl-1H-imidazole-5-carboxylate]
